From PMC12517324, “Hyperagonism of a Vitamin D Receptor Agonist/Histone Deacetylase Inhibitor Hybrid Molecule” (Journal of Medicinal Chemistry, 2025)
pIC50: −log10 of the molar value.

Key:
VDR = system: VDR; set-up: method as in earlier work; conditions: efficacious and well-tolerated dose; ref (ref); cited from earlier work
B16–F10 cells = assay: RNaseq gene expression profiling; type: cell-based, mouse; conditions: 10 μM, 24 h
Method: AC-340 superinduced CYP24A1 expression in all cell lines tested, and ZG-126 appeared to be a hyperagonist in SK-MEL-28 cells. […] AC-340 treatment produced 3 times more differentially expressed genes (DEGs) than AM-193, with ZG-126 producing an intermediate number (Figure A). […] The varying effects of each treatment on the numbers of regulated genes and the fold changes observed are reflected in plots of log-fold changes and volcano plots (Figure S3B).
A quality control was performed before sequencing in paired-end at 50 M reads by Illumina NovaSeq 6000 S4 PE100. After sequencing, the FASTQ files were sent to us and all downstream analysis were performed on Galaxy (Galaxy (usegalaxy.org)). First, trimmomatic tool was used to remove the adapters from the reads. Then, using the alignment tool, HISAT2, the reads were mapped to the mouse genome. In the next step, the counted reads were annotated and finally the list of differentially expressed genes (DEGs) for each treatment was obtained using the preinstalled R package called Limma.

[1] = system: CYP24A1 in SK-MEL-28 cells; assay: CYP24A1 induction (RT-qPCR), extended dose–response in SK-MEL-28 cells; conditions: SK-MEL-28 cells, 10 μM
[2] = system: Cyp24a1 gene in B16–F10 melanoma cells; assay: Cyp24a1 gene induction (RT-qPCR) as test of VDR agonism; type: cell-based, mouse; conditions: hybrids 10 μM, 1,25D and SAHA 100 nM, 24 h
[3] = system: VDR target genes in B16-F10 cells; assay: RT-qPCR of selected VDR target genes (RNaseq validation); type: cell-based, mouse; conditions: B16-F10, 24 h, compared with other treatments
Text: The enhanced response of B16–F10 cells to AC-340 likely reflects the VDR hyperagonist activity observed in Cyp24a1 induction assay (Figure A). […] In 49 of 50 cases, AC-340 superinduced their expression, often several fold (Figure C), consistent with AC-340 being a broad hyperagonist of 1,25D-induced genes.
RNAseq data validation by RT-qPCR of selected VDR target genes in B16-F10
Fig. S4. Validation of the RNAseq data by RT-qPCR.

HDAC 10 = target: T1, HDAC 10 (Homo sapiens, UniProt Q969S8); assay: HDAC 10 inhibition (Reaction Biology, 10-dose IC50)
T1 sequence (Q969S8 1-669): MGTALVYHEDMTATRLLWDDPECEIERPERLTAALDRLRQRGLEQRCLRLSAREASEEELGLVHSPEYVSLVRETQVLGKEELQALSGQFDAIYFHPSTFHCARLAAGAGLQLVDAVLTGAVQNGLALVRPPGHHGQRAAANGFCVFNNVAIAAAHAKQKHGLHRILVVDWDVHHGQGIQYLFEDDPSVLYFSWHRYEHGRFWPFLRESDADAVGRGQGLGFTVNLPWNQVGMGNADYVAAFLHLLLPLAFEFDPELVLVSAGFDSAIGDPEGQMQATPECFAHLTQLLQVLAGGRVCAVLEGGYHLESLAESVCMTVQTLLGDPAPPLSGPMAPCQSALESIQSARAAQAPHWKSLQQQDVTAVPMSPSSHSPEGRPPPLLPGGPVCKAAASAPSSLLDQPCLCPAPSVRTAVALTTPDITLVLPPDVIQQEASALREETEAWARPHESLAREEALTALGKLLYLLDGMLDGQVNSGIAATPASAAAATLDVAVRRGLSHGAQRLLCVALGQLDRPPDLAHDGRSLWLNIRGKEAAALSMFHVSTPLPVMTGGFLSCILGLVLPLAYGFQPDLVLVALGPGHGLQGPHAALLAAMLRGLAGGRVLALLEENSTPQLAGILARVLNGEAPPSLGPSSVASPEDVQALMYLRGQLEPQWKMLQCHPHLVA

CCC(CC)(c1ccc(C(=O)NCCCCC(=O)NO)cc1)c1ccc(OCC(O)C(C)(C)C)c(C)n1 (centres unmarked) [ZG-126]
VDR agonist activity in vivo (VDR): displays VDR agonist activity in vivo | logFC Btn1a1 (B16–F10 cells): 8.367 | logFC Cyp24a1 (B16–F10 cells): 8.537 | logFC Elfn1 (B16–F10 cells): 7.8172 | logFC Nccrp1 (B16–F10 cells): 7.976 | logFC Tnni1 (B16–F10 cells): 9.358 | CYP24A1 induction (VDR hyperagonism) [1]: displayed hyperagonism | Cyp24a1 gene expression induction [2]: more efficacious than 1,25D (and AM-193) | Prelp gene induction [3]: most efficacious inducer | Tgm2 gene induction [3]: most efficacious inducer

Cn1cc(CNCC2CCN(c3ncc(C(=O)NO)cn3)CC2)c2ccccc21 [Quisinostat]
pIC50 (HDAC 10): 8.34
